Patent publication US20230313199A1, “TARGET FOR MODULATING BODY MASS” (Massachusetts Institute of Technology, priority 2020, published 2023)

How the values were obtained:
[1] = system: MCF7 cells; assay: Thermogenesis by FPT, parental MCF7 cells; format: cell-based, human; details: heme for 1 hour
Protocol: Shown are representative graphs of OCR output of the indicated cells with or without hematin treatment and their responses to oligomycin, FCCP, and rotenone plus antimycin A (FIG. 12B), basal OCR (FIG. 12C), maximal OCR (FIG. 12D), and ECAR (FIG. 12E) from two separate experiments with n=10 biologically independent samples. Data are presented as mean value±standard deviation. Each dot represents one technical replicate. […] Parental and knockout cells were incubated with no probe or FPT for 6 hours, and then washed twice. A portion of FPT-treated cells was treated with heme for 1 hour. FPT fluorescence intensity was quantified by flow cytometry. Shown are representative plots from two separate experiments. P-values were calculated using two-way ANOVA (***p<0.001).
In the second approach, we used fluorescent polymeric thermometer (FPT), which we synthesized in-house (see above). Parental and knockout THP-1 cells were mixed together, washed and incubated with FPT in 5% w/v glucose solution for 6 hrs. The cells were washed with PBS twice and reseeded in dishes with glass bottom that was coated with poly-lysine. The cells were imaged under Confocal Laser-Scanning Microscopy at 37° C. […] Then the fluorescence intensities were determined by a flow cytometer.

[2] = system: interactions between MFSD7C^ΔN and CYC1, NDUFA4, COX4i1, ATP5h and ATP5c1; assay: Co-IP of HA-tagged MFSD7C^ΔN with ETC components; format: cell-based, murine; details: heme treatment before lysis
Protocol: FIGS. 4A-4H show NTD of MFSD7C mediates heme effect on mitochondrial respiration. FIGS. 4A-4C show comparison of basal OCR (FIG. 4A), maximal OCR (FIG. 4B) and ECAR (FIG. 4C) of THP-1, 4B8, and 4B8^FL and 4B8^ΔN cells treated with vehicle or heme for 1 hour (n=18 separate experiments). […] Cells were incubated with FPT for 6 hrs, washed and reseeded in poly-lysine coated glass bottom dishes. After cells attached to the glass, medium containing 40 μM heme was added. Cells in the same field were imaged immediately and again 1 hour later. Relative FPT fluorescent intensities, normalized to THP-1, from three experiments are shown. (n=3 independent experiments). […] THP-1 cells were co-cultured with 4B8, 4B8^FL, or 4B8^ΔN in FPT solution for 6 hrs, washed and reseeded in poly-lysine coated glass bottom dishes. Cells were imaged by confocal laser-scanning microscopy. […] Representative images from three experiments are shown. Scale bar: 10 μm. […] THP-1, 4B8, 4B8^FL and 4B8^ΔN cells were treated with vehicle or heme for 1 hour and MMP was measured by using JC-10 Mitochondrial Membrane Potential Assay Kit followed by flow cytometry. […] Shown are representative Western blotting data (FIG. 4G) and quantification of band intensities from n=3 independent experiments (FIG. 4H). P-values were calculated using two-way ANOVA (*p<0.05, **p<0.01, ***p<0.005). […]

[3] = target: T1, endogenous MFSD7C and SERCA2b (Mus musculus, UniProt Q91X85); assay: Co-IP of endogenous MFSD7C and SERCA2b in bone marrow-derived macrophages; format: cell-based; details: bone marrow-derived wild-type macrophages, heme treatment
T1 construct: Co-IP and immunoblotting analysis of endogenous MFSD7C with ATP5h, SERCA2b and HMOX1 in bone marrow-derived macrophages; endogenous in cells; host or cells: bone marrow-derived macrophages from C57BL/6 mice
Protocol: NTD was incubated with heme and run on Superdex 75 gel filtration column. The flow through was measured for absorbance at 230 nm (gray), 380 nm (blue), and 415 nm (green). Absorbance intensity was normalized to maximum value. […] Heme (100 μM) absorption was set to zero. […] Wildtype (WT) and mutant (Mut) peptide sequences are shown. […] Shown are representative data from five separate experiments. […] Shown are immunoblots of MFSD7C, ATP5h, SERCA2b, and HMOX1 on whole lysates or immunoblots of MFSD7C on anti-ATP5h, anti-SERCA2b and anti-HMOX1 immunoprecipitates. Representative data from one from three experiments are shown. […] Shown are representative data from three separate experiments. WCE: whole cell extract, Sup: supernatant, Mito: 10,000 g mitochondrial fraction. […] THP-1 cells were stained with MitoTracker (green), fixed and permeabilized, and then stained with rabbit polyclonal antibody specific for the C-terminus of MFSD7C, followed with Alexa Fluor® 594-labelled goat anti-rabbit antibody (red). Nuclei were labeled using DAPI (blue). […]
Differentiation of bone marrow-derived macrophage (BMDM). […] Cells were resuspended in DMEM media containing 10% FBS, 2 mM L-glutamine, 2 mM pyruvate, non-essential amino acids (100 μM each), 0.55 mM 2-mercaptoethanol, penicillin/streptomycin), passed through a 40 μm Falcon cell strainer (VWR) to remove large aggregates, and counted. […]

T1 sequence (Q91X85 whole entry): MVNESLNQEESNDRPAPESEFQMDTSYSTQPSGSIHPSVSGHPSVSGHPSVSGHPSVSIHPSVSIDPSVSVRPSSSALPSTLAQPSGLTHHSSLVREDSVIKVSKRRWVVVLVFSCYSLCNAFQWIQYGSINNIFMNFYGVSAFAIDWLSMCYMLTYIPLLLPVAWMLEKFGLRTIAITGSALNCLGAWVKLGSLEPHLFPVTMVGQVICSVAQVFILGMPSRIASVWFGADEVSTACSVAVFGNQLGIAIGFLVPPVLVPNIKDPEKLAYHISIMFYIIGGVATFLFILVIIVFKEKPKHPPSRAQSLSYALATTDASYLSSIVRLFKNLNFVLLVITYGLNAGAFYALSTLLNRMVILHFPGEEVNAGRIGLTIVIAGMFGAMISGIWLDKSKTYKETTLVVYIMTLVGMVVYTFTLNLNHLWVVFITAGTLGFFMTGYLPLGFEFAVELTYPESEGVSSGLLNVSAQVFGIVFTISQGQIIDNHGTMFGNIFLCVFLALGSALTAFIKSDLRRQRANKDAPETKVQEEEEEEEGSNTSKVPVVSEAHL

For `C=CC1=C(C)c2cc3[n-]c(cc4[n-]c(cc5nc(cc1n2)C(C)=C5C=C)c(C)c4CCC(=O)O)c(CCC(=O)O)c3C.[Fe+2]` [heme], the FTP intensity [1] was “significantly stimulated”, the “disruption of interactions between MFSD7C^ΔN and ETC components (co-IP)” value [2] was “failed to disrupt” and the “co-IP of endogenous MFSD7C and SERCA2b” value [3] was “diminished”.
